{"source": "patent US8563582B2", "about": "“3-aminocyclopentanecarboxamides as modulators of chemokine receptors” (priority 2004, dated 2013)", "origin": "cited, not measured here", "key": {"human CCR5": {"target": "human CCR5 (Homo sapiens, UniProt P51681)", "sequence (P51681 whole entry)": "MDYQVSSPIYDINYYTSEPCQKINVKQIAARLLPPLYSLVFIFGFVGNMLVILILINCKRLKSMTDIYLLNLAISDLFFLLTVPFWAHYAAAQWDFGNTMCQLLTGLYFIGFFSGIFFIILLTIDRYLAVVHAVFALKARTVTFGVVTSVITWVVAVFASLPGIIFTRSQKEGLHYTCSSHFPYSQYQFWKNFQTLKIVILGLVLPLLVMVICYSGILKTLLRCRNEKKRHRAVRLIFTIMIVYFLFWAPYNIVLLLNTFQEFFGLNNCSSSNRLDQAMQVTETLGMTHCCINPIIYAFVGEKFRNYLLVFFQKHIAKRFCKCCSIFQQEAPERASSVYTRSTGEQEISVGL"}, "rhesus macaque CCR5": {"target": "rhesus macaque CCR5 (Macaca mulatta, UniProt P61813)"}, "HIV-1 [1]": {"tested_on": "HIV-1"}, "HIV-1 [2]": {"tested_on": "HIV-1", "conditions": "U-87 astroglioma cells"}}}
{"smiles": "Cc1ncnc(C)c1C(=O)N1CCC(C)(N2CCN([C@@H](C)c3ccc(C(F)(F)F)cc3)[C@@H](C)C2)CC1", "note": "[AD101]", "values": [{"measurement": "inhibition of entry of HIV-1 via human CCR5", "setting": "human CCR5", "result": "inhibits"}, {"measurement": "inhibition of HIV-1 entry via rhesus macaque CCR5", "setting": "rhesus macaque CCR5", "result": "inhibits"}]}
{"smiles": "CCO/N=C(\\c1ccc(Br)cc1)C1CCN(C2(C)CCN(C(=O)c3c(C)cc[n+]([O-])c3C)CC2)CC1", "note": "[SCH-C]", "values": [{"measurement": "inhibition of HIV-1 entry via rhesus macaque CCR5", "setting": "rhesus macaque CCR5", "result": "does not"}, {"measurement": "effect on infection of CXCR4-expressing cells", "setting": "HIV-1 [1]", "result": "no effect"}, {"measurement": "inhibition of HIV-1 infection mediated by CCR5", "setting": "HIV-1 [2]", "result": "specifically inhibits"}]}
{"smiles": "Cc1ccc(-c2ccc3c(c2)C=C(C(=O)Nc2ccc(C[N+](C)(C)C4CCOCC4)cc2)CCC3)cc1.[Cl-]", "note": "[TAK-779]", "values": [{"measurement": "anti-HIV activity", "setting": "HIV", "result": "potent but variable"}]}
